Reference: patent publication US20240150322A1, “CDK9 Inhibitors” (Biolexis Therapeutics, Inc., priority 2022, published 2024)

Columns and labels:
Prostate cancer cells = assay: Colony formation assay 2; assay type: cell-based; details: 0.123 to 10 μM for 72 hours
[1] = test system: CDK9 downstream targets in 22Rv1 and LASCPC-01; assay: Western blot analysis of nuclear extract; assay type: cell-based
Method: Cytoplasmic and nuclear extracts from these cells were separated using NE-PER Nuclear and Cytoplasmic Extraction Kit (ThermoFisher). […] Relative protein expression of CDK9, N-Myc and other downstream signaling was quantified by GraphPad Prism 8 and ImageJ Software RT-PCR Gene.
Then cells were harvested with PBS and fixed with ice-cold 70% ethanol at −20° C. overnight. The cells were then washed with ice-cold PBS 2× and then re-suspended in DAPI staining buffer and incubated in the dark for 30 minutes. The cells were analyzed using BD Fortessa flow cytometer and cell cycle distribution was analyzed using FlowJo and GraphPad Prism 8 Software.

22Rv1 = assay: Annexin V/7-AAD apoptosis assay; assay type: cell-based
PCTK1 = PCTK1 (Homo sapiens, UniProt Q00536); assay: scanMAX panel and Kd follow-up; assay type: binding
Chain of PCTK1 (Q00536 whole entry): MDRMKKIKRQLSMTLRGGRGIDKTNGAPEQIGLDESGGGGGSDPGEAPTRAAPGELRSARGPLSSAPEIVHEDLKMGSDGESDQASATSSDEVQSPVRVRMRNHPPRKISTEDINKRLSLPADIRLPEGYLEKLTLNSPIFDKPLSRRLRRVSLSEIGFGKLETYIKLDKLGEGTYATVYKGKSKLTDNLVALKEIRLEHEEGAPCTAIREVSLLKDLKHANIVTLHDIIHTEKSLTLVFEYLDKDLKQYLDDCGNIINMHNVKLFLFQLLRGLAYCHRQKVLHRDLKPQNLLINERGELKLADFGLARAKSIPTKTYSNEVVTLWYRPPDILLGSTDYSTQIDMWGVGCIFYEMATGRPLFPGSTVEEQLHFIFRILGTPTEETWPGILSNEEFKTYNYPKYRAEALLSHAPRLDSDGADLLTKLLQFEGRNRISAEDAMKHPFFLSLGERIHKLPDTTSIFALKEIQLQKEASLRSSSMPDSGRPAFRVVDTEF

LASCPC-01 = assay: Annexin V/7-AAD apoptosis assay; assay type: cell-based

Question: Which results are given for `CC(C)c1c2cc(-c3ccnc(N[C@H]4CC[C@H](N)C4)n3)ccc2nn1C` [Compound I-2, (1S,3S)-[3-[4-(3-isopropyl-2-methylindazol-5-yl)pyrimidin-2-yl]aminocyclopentan-1-yl]-1,3-diamine]?
Answer: colony formation (Prostate cancer cells): complete inhibition of colony formation; CDK9 downstream targets (Western blot) [1]: inhibited the CDK9 downstream targets; apoptosis by Annexin V/7-AAD staining (22Rv1; 22Rv1): increased apoptosis in a dose dependent manner; cell death (22Rv1; 22Rv1, treated for 72 hours): 71%; Kd (PCTK1; PCTK1): 8.2 nM; remaining binding at 1 µM (PCTK1; PCTK1, 1 μM, read-out: % of control activity): 0 to 1%; apoptosis by Annexin V/7-AAD staining (LASCPC-01; LASCPC-01): increased apoptosis in a dose dependent manner; cell death (LASCPC-01; LASCPC-01, treated for 72 hours): 69%
